Measured values taken from ChEMBL document CHEMBL1201862, “PubChem BioAssay data set” (2004).
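Method: 48-hour compound exposure of cells in 96-well plates, five concentrations, linear interpolation of endpoints. GI50 is the concentration that inhibits growth by half.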 Activity calls are given as the source filed them. Cut-off read from the data, not from the text of the source: active = GI50 up to about 1.1 µM and inactive = higher.

Experiments:
Experiment in all cases: DTP human tumour cell line panel, 48 h
U-251 = test system: U-251
K562 = test system: K562
RXF 393 = test system: RXF 393
A498 = test system: A498
OVCAR-5 = test system: OVCAR-5
CCRF-CEM = test system: CCRF-CEM
COLO 205 = test system: COLO 205
SK-MEL-2 = test system: SK-MEL-2
HCT-116 = test system: HCT-116
LOX IMVI = test system: LOX IMVI
SK-OV-3 = test system: SK-OV-3
HOP-62 = test system: HOP-62
Hs-578T = test system: Hs-578T
SF-268 = test system: SF-268
786-0 = test system: 786-0
MDA-N = test system: MDA-N
MDA-MB-231 = test system: MDA-MB-231
SF-295 = test system: SF-295
NCI/ADR-RES = test system: NCI/ADR-RES
NCI-H522 = test system: NCI-H522

Measured: GI50

CC(=O)O[C@H]1C[C@H]2[C@@H]([C@H](OC(C)=O)C[C@@H]3CC4(CC[C@@]32C)OOC2(CCCCC2)OO4)[C@@H]2CC[C@H]([C@H](C)CCC(=O)O)[C@@]12C
inactive: U-251 4.52 µM | K562 5.57 µM | RXF 393 13.5 µM | A498 13.3 µM | OVCAR-5 10.7 µM | CCRF-CEM 2.33 µM | COLO 205 3.91 µM | SK-MEL-2 13.1 µM | HCT-116 5.81 µM | LOX IMVI 3.48 µM | SK-OV-3 13.7 µM | HOP-62 2.45 µM | Hs-578T 2.42 µM | SF-268 6.81 µM | 786-0 11.3 µM | MDA-N 8.75 µM | MDA-MB-231 14.1 µM | SF-295 5.93 µM | NCI/ADR-RES 4.88 µM | NCI-H522 3.24 µM

Nc1cc(-c2ccc(Cl)cc2)nn1-c1nc2ccccc2nc1-c1ccccc1
inactive: U-251 48.1 µM | K562 > 100 µM | RXF 393 35 µM | A498 > 100 µM | OVCAR-5 > 100 µM | CCRF-CEM > 100 µM | COLO 205 > 100 µM | SK-MEL-2 59.7 µM | HCT-116 > 100 µM | LOX IMVI > 100 µM | SK-OV-3 > 100 µM | HOP-62 49 µM | Hs-578T 70.5 µM | SF-268 > 100 µM | 786-0 39 µM | MDA-N > 100 µM | MDA-MB-231 > 100 µM | SF-295 > 100 µM | NCI/ADR-RES > 100 µM | NCI-H522 > 100 µM

COc1cc(/C=C2\CC3C4CC[C@H]5C[C@@H](O)CC[C@]5(C)C4CC[C@]3(C)C2=O)cc(OC)c1OC (stereo not given in full)
inactive: U-251 8.26 µM | K562 4.68 µM | RXF 393 13.9 µM | A498 12.1 µM | OVCAR-5 27 µM | CCRF-CEM 7.36 µM | COLO 205 5.93 µM | SK-MEL-2 14.9 µM | HCT-116 7.19 µM | LOX IMVI 12.6 µM | SK-OV-3 11.5 µM | HOP-62 13 µM | Hs-578T 14.4 µM | SF-268 24 µM | 786-0 16 µM | MDA-N 19.9 µM | MDA-MB-231 22.1 µM | SF-295 4.69 µM | NCI/ADR-RES 16.7 µM | NCI-H522 7.93 µM

CCCC(=O)NC1=C(Cl)C(=O)c2ccccc2C1=O
inactive: U-251 3.78 µM | K562 2.07 µM | RXF 393 1.15 µM | A498 13.3 µM | OVCAR-5 4.59 µM | CCRF-CEM 1.32 µM | COLO 205 1.89 µM | SK-MEL-2 2.39 µM | HCT-116 1.73 µM | LOX IMVI 2.51 µM | SK-OV-3 8.67 µM | HOP-62 9.23 µM | Hs-578T 5.25 µM | SF-268 6.92 µM | 786-0 4.53 µM | MDA-N 4.11 µM | MDA-MB-231 3.94 µM | SF-295 4.99 µM | NCI/ADR-RES 3.32 µM | NCI-H522 1.13 µM

COC(=O)CCC(C)[C@H]1CCC2C3C(C[C@H](OC(C)=O)[C@@]21C)[C@@]1(C)CCC2(C[C@H]1C[C@H]3OC(C)=O)OOC1(CCCCCCC1)OO2 (stereo not given in full)
inactive: U-251 5.86 µM | K562 4.67 µM | RXF 393 > 100 µM | A498 > 100 µM | OVCAR-5 > 100 µM | CCRF-CEM 4.97 µM | COLO 205 7.62 µM | SK-MEL-2 > 100 µM | HCT-116 2.74 µM | LOX IMVI 3.65 µM | SK-OV-3 > 100 µM | HOP-62 4.99 µM | Hs-578T 4.05 µM | SF-268 6.27 µM | 786-0 6 µM | MDA-N > 100 µM | MDA-MB-231 8.26 µM | SF-295 6.38 µM | NCI/ADR-RES > 100 µM | NCI-H522 10.9 µM

O=[N+]([O-])c1ccc(NC(=S)Nc2ccccn2)cc1
inactive: U-251 24.3 µM | K562 > 69.2 µM | RXF 393 4.68 µM | A498 12.8 µM | OVCAR-5 27.7 µM | CCRF-CEM > 64.4 µM | COLO 205 18.5 µM | SK-MEL-2 > 53.1 µM | HCT-116 11.9 µM | LOX IMVI 16.4 µM | SK-OV-3 47 µM | HOP-62 17.3 µM | Hs-578T 13.8 µM | SF-268 26.9 µM | 786-0 16.8 µM | MDA-N 91.8 µM | MDA-MB-231 40.3 µM | SF-295 27.4 µM | NCI/ADR-RES 33.4 µM | NCI-H522 31.8 µM
